In the NIST ThermoML archive (doi:10.1007/s10765-006-0051-4):
± gives the expanded uncertainty stated by the source.

Assay: xn = mol fraction of the nth substance listed
Conditions: Gas, Oscillating disk viscometry

FC(F)C(F)(F)F [pentafluoroethane] + CCC
Conditions	viscosity [mPa·s]
373.15 K, 3429.9 kPa, x1 = 0.5011	0.01593 ± 0.00052
373.15 K, 3613.1 kPa, x1 = 0.5011	0.01624 ± 0.00053
373.15 K, 3684.6 kPa, x1 = 0.7503	0.01798 ± 0.00057
373.15 K, 3737.3 kPa, x1 = 0.5011	0.01642 ± 0.00054
373.15 K, 3960.9 kPa, x1 = 0.5011	0.01685 ± 0.00055
373.15 K, 3969.4 kPa, x1 = 0.7503	0.01855 ± 0.00059
373.15 K, 4171.6 kPa, x1 = 0.5011	0.0173 ± 0.00056
373.15 K, 4227.4 kPa, x1 = 0.7503	0.01913 ± 0.0006
373.15 K, 4377 kPa, x1 = 0.5011	0.01777 ± 0.00057
373.15 K, 4411 kPa, x1 = 0.7503	0.01964 ± 0.00061
373.15 K, 4576.1 kPa, x1 = 0.5011	0.01833 ± 0.00058
373.15 K, 4607.7 kPa, x1 = 0.7503	0.02019 ± 0.00062
373.15 K, 4760.3 kPa, x1 = 0.5011	0.01889 ± 0.00059
373.15 K, 4816.2 kPa, x1 = 0.7503	0.02092 ± 0.00064
373.15 K, 4878.3 kPa, x1 = 0.5011	0.01931 ± 0.0006
373.15 K, 5001.8 kPa, x1 = 0.7503	0.0217 ± 0.00066
373.15 K, 5157.2 kPa, x1 = 0.7503	0.02229 ± 0.00067
373.15 K, 5305.9 kPa, x1 = 0.7503	0.02305 ± 0.00069
398.15 K, 101.4 kPa, x1 = 0.5011	0.01447 ± 0.00049
398.15 K, 101.8 kPa, x1 = 0.7503	0.01589 ± 0.00052
398.15 K, 200.6 kPa, x1 = 0.5011	0.01454 ± 0.00049
398.15 K, 262.5 kPa, x1 = 0.7503	0.01594 ± 0.00052
398.15 K, 348.4 kPa, x1 = 0.5011	0.01457 ± 0.00049
398.15 K, 488.6 kPa, x1 = 0.7503	0.01602 ± 0.00053
398.15 K, 541 kPa, x1 = 0.5011	0.01463 ± 0.00049
398.15 K, 733.4 kPa, x1 = 0.7503	0.01606 ± 0.00053
398.15 K, 783.2 kPa, x1 = 0.5011	0.01467 ± 0.0005
398.15 K, 977 kPa, x1 = 0.7503	0.01615 ± 0.00053
398.15 K, 1028.7 kPa, x1 = 0.5011	0.01479 ± 0.0005
398.15 K, 1218.3 kPa, x1 = 0.7503	0.01622 ± 0.00053
398.15 K, 1272.7 kPa, x1 = 0.5011	0.01488 ± 0.0005
398.15 K, 1476.6 kPa, x1 = 0.7503	0.01635 ± 0.00053
398.15 K, 1520 kPa, x1 = 0.5011	0.01497 ± 0.0005
398.15 K, 1712.5 kPa, x1 = 0.7503	0.01647 ± 0.00054
398.15 K, 1748.1 kPa, x1 = 0.5011	0.01511 ± 0.00051
398.15 K, 1944.3 kPa, x1 = 0.7503	0.01666 ± 0.00054
398.15 K, 2037 kPa, x1 = 0.5011	0.01521 ± 0.00051
398.15 K, 2176.8 kPa, x1 = 0.7503	0.01672 ± 0.00054
398.15 K, 2274.1 kPa, x1 = 0.5011	0.0154 ± 0.00051
398.15 K, 2388.9 kPa, x1 = 0.7503	0.01694 ± 0.00055
398.15 K, 2490.3 kPa, x1 = 0.5011	0.01548 ± 0.00052
398.15 K, 2622.4 kPa, x1 = 0.7503	0.01715 ± 0.00055
398.15 K, 2777.4 kPa, x1 = 0.5011	0.01568 ± 0.00052
398.15 K, 2888.9 kPa, x1 = 0.7503	0.01734 ± 0.00056
398.15 K, 3059.7 kPa, x1 = 0.5011	0.01592 ± 0.00052
398.15 K, 3178.3 kPa, x1 = 0.7503	0.01765 ± 0.00056
398.15 K, 3336.8 kPa, x1 = 0.5011	0.01626 ± 0.00053
398.15 K, 3405.7 kPa, x1 = 0.7503	0.01794 ± 0.00057
398.15 K, 3609.9 kPa, x1 = 0.5011	0.0165 ± 0.00054
398.15 K, 3624.9 kPa, x1 = 0.7503	0.01817 ± 0.00058
398.15 K, 3822.7 kPa, x1 = 0.7503	0.01844 ± 0.00058
398.15 K, 3842.8 kPa, x1 = 0.5011	0.01681 ± 0.00055
398.15 K, 3992.9 kPa, x1 = 0.7503	0.01868 ± 0.00059
398.15 K, 4062.4 kPa, x1 = 0.5011	0.01705 ± 0.00055
398.15 K, 4225.4 kPa, x1 = 0.7503	0.01902 ± 0.0006
398.15 K, 4329.6 kPa, x1 = 0.5011	0.01744 ± 0.00056
398.15 K, 4523.9 kPa, x1 = 0.7503	0.01947 ± 0.00061
398.15 K, 4652.3 kPa, x1 = 0.5011	0.01792 ± 0.00057
398.15 K, 4690.7 kPa, x1 = 0.7503	0.01983 ± 0.00062
398.15 K, 4804.6 kPa, x1 = 0.7503	0.02002 ± 0.00062
398.15 K, 5014.1 kPa, x1 = 0.5011	0.01853 ± 0.00059
